Test results published in US20140166028A1, “Enhanced Delivery of Nicotine, THC, Tobacco, Cannabidiol or Base Alkaloid from an Electronic Cigarette or Other Vapor or Smoke Producing Device Through Use of an Absorption Conditioning Unit” (priority 2012, published 2014).
Several values for one entry are separate records, joined by “and”; a condition that tells them apart may be missing. Equal entries are not always repeated.

Key:
[1] = Buffer power test: pH on 1X, 2X, 3X dilution with Dulbecco's phosphate buffered saline (DPBS); type: physicochemical; details: for pH 1X DPBS: 1X dilution with DPBS; for pH 1X DPBS / pH 2X DPBS / pH 3X DPBS / pH 0X DPBS: 22-23° C.; for 1× pH: 1× dilution with DPBS; for pH 2X DPBS: 2X dilution with DPBS; for 2× pH: 2× dilution with DPBS; for pH 3X DPBS: 3X dilution with DPBS; for 3× pH: 3× dilution with DPBS; for pH of the product or solution: undiluted (0×); for pH 0X DPBS: undiluted
Protocol: The pH of the resulting solution is tested and the test is passed if the resulting solution has a pH below 6.0.”
A Dulbecco phosphate buffer saline solution (DPBS) was purchased and used for all compositions at the 1×, 2× and 3× dilution. A typical composition for DPBS is provided below:

[2] = capsules with sesame oil, oral; cited from earlier work

| SMILES | pH 1X DPBS ([1]; listed as NaHCO3 .1M*) | pH 1X DPBS ([1]; listed as NaHCO3 .1M**) | 1× pH [1] | pH 2X DPBS ([1]; listed as NaHCO3 .1M*) | pH 2X DPBS ([1]; listed as NaHCO3 .1M**) | 2× pH [1] | pH 3X DPBS ([1]; listed as NaHCO3 .1M*) | pH 3X DPBS ([1]; listed as NaHCO3 .1M**) | 3× pH [1] | pH of the product or solution [1] | pH 0X DPBS [1] | pH 1X DPBS [1] | pH 2X DPBS [1] | pH 3X DPBS [1] | pH of the product or solution ([1]; listed as 0.1M Sodium Carbonate) | pH of the product or solution ([1]; listed as Sodium carbonate solution: 0.1M) | fraction entering the systemic circulation [2] |
| --- | --- | --- | --- | --- | --- | --- | --- | --- | --- | --- | --- | --- | --- | --- | --- | --- | --- |
| O=C([O-])O.[Na+] [0.1M Sodium Bicarbonate, sodium bicarbonate] | 7.9 and 7.7 | 7.7 | 7.9 and 7.7 | 7.5 and 7.6 | 7.5 | 7.5 | 7.5 and 7.6 | 7.5 | 7.5 | 8.1 | 8.1 |  |  |  |  |  |  |
| O=C([O-])[O-].[Na+].[Na+] [Na2CO3 .1M, sodium carbonate] |  |  | 10.9 |  |  | 10.8 |  |  | 10.6 |  | 11.5 and 11.3 | 10.9 and 11.1 | 11.1 | 11.1 | 11.3 | 11.5 |  |
| CCCCCc1cc(O)c2c(c1)OC(C)(C)[C@@H]1CCC(C)=C[C@@H]21 [dronabinol] |  |  |  |  |  |  |  |  |  |  |  |  |  |  |  |  | 10-20% |
